Assay results reported in US6794149B1, “GABA B receptors” (Bayer Aktiengesellschaft, priority 1999, dated 2004).

Legend:
D-GABA B receptors R1/R2 = test: cAMP measurement in HEK293 cells stably coexpressing D-GABA B R1/R2; assay type: cell-based, Drosophila melanogaster; conditions: D-GABA B R1/2-transfected HEK293 cells; GABA (100 μM) with forskolin (10 μM), 30 minutes, 37° C.; FIG. 2
Method: HEK293 cells were cultured at 5% CO2 and 37° C. in Dulbecco's modified Eagle's medium and 10% foetal calf serum. MBS (Stratagene, La Jolla, USA) was used for the gene transfer, following the manufacturer's instructions. 24 h to 48 h after the gene transfer, the cells were sown intro microtiter plates at various densities. Recombinant cells were selected over 3 to 4 weeks by growth in Dulbecco's modified Eagles medium and 10% foetal calf serum and 700 μg/ml Geneticin (G418, Life Technologies, Karlsruhe) as selection marker. Individual resistant clones were analysed as described below.
HEK293 cell strains were used for determining the cAMP concentration. On the one hand, HEK293 cells stably coexpressed the two Drosophila melanogaster receptors D-GABA B R1 and D-GABA B R2 (D-GABA R1/2). On the other hand, untransfected control cells were incorporated into the assay (control). In each case, the cells were plated into 96-well-plates at a density of 20,000 cells per cavity. […] The cells were lysed for 20 minutes at room temperature with shaking, and the cAMP concentration of the cell lysates were determined in triplicate using the enzyme immunoassay (EIA) kit AK-200 (Biomol, Hamburg, Germany) following the manufacturer's description.

[1] = system: untransfected control cells (HEK293); test: cAMP measurement in untransfected HEK293 control cells; assay type: cell-based; conditions: GABA (100 μM) with forskolin (10 μM), 30 minutes, 37° C., FIG. 2
Method: HEK293 cell strains were used for determining the cAMP concentration. On the one hand, HEK293 cells stably coexpressed the two Drosophila melanogaster receptors D-GABA B R1 and D-GABA B R2 (D-GABA R1/2). On the other hand, untransfected control cells were incorporated into the assay (control). In each case, the cells were plated into 96-well-plates at a density of 20,000 cells per cavity. Control cells were incubated in culture medium (DMEM, 10% FCS, penicillin and streptomycin, 50 U/ml and 50 μg/ml (Life Technologies)) and D-GABA-R1/2 expressing cells in selection medium (culture medium with 0.5 mg/ml Geneticin (G418, Life Technologies)) for 48 hours at 37° C. until a cell density of approximately 80% was reached. Thereupon, the medium was removed, and the cells were washed once with unsupplemented DMEM. After incubation for 30 minutes with IBMX (300 μM) at 37° C., cells were stimulated for 30 minutes with GABA (100 μM) and/or forskolin (10 μM) at 37° C. All incubation steps were carried out in unsupplemented DMEM (Life Technologies). […] The cells were lysed for 20 minutes at room temperature with shaking, and the cAMP concentration of the cell lysates were determined in triplicate using the enzyme immunoassay (EIA) kit AK-200 (Biomol, Hamburg, Germany) following the manufacturer's description.

## NCCCC(=O)O [GABA, Gamma-amino-butyric acid]
D-GABA B receptors R1/R2
  forskolin-induced cAMP response (intracellular cAMP concentration): marked reduction
[1]
  forskolin-induced cAMP response (intracellular cAMP concentration): unresponsive
